US20140336216A1, “PHYSIOLOGICAL LIGANDS FOR GPR139” (Janssen Pharmaceutica NV, priority 2013, published 2014)
Values joined by “and” are separate entries in the source; they are usually repeats but may differ in a detail not shown here. Equal values may be shown once. Read-outs that look alike come from different tables or passages of the source.

Key:
GPR139 [1] = target: T1, GPR139 (Homo sapiens, UniProt Q6DWJ6); assay: GTPγS binding assay, single-concentration screen, COS7 membranes co-expressing GPR139 and GO2Q; assay type: biochemical; design: expressed in transfected cells; host or cells: COS7 (membranes); conditions: 1 mM final concentration; COS7 membranes co-expressing GPR139 and GO2Q; single wells of triplicate
T1 sequence (Q6DWJ6 1-353): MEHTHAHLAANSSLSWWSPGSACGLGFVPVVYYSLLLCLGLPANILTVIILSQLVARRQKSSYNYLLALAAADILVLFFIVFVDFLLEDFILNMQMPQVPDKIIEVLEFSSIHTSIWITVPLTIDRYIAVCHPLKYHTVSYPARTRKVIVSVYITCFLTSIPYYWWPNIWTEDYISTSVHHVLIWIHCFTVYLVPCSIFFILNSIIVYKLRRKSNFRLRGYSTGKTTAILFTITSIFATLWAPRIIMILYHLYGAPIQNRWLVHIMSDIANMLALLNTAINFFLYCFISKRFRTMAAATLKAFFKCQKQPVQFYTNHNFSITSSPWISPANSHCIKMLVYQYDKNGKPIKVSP
Protocol: (§1) In order identify the ligands for GPR139 two improvements in the detection assay were made to allow for the ligands to be detected. First, we chose to use a GTPγS binding assay instead of using live cultured cells. The GTPγS binding assay is a cell free system that uses the cell membrane of the cell(s) of interest rather than the live cell(s). One advantage of this assay is that potential ligands present in the cell culture media are washed away when the cell membrane is prepared. This reduces the basal level of signal and increase the chance of detecting receptor ligands when assessing compounds that activate the receptor. Second, a GO2Q chimeric G-protein was created to be co-expressed with GPR139 in order to increase the signal-to-noise ratio in the GTPγS binding assay. Historically, the Gi, Go coupled GPCRs offer much greater signal-to-noise ratio in GTPγS binding studies. For Gs and Gq coupled GPCRs, although ligand-stimulated specific signals can be detected in a GTPγS binding assay, the signal-to-noise ratios are often very small. To address this a chimeric GO2-Gq chimeric G-protein, GO2Q, with the N-terminus from Go2 protein and the C-terminus from Gq protein.
(§2) To test for compounds that activate GPR139, different amino acids and their derivatives (Table 2) were tested as ligands in the GTPγS binding assay using cell membranes from COS7 cells co-expressing GPR139 and GO2Q. Cell membrane from COS7 cells expressing GO2Q alone or co-expressing other GPCRs were also tested in GTPγS binding assay in parallel as controls. Each compound was tested in triplicate.

GO2Q alone = assay: GTPγS binding assay, control COS7 membranes expressing GO2Q alone (Ct-GO2Q); assay type: biochemical
Protocol: as §1, §2

mouse GPR139 = target: T2, mouse GPR139 (Mus musculus, UniProt Q80UC8); assay: GTPγS binding dose response study, mouse GPR139 co-transfected with GO2Q into COS7 cells; assay type: biochemical; conditions: mouse GPR139, FIG. 2C and 2D
T2 construct: expressed in transfected cells; host or cells: COS7 (membranes)
T2 sequence (Q80UC8 1-345): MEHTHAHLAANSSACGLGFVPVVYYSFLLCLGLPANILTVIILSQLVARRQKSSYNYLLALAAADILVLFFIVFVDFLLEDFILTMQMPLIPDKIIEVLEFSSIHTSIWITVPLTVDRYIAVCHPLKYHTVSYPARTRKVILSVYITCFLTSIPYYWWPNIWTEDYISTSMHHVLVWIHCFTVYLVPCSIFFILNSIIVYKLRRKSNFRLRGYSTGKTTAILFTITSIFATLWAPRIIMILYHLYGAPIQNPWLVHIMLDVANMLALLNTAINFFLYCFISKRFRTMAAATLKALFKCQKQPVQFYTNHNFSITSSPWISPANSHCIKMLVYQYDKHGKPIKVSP
From the text: (§3) FIG. 2-FIG. 2F: Tryptophan, phenylalanine, and their derivatives activate GPR139. Human (FIG. 2A and FIG. 2B) or mouse (FIG. 2C and FIG. 2D) GPR139 were co-transfected with chimeric G-protein GO2Q into COS7 cells. Cell membranes from transfected cells were used in GTPγS binding studies using various ligands at different concentrations to stimulate GPR139. FIG. 2E and FIG. 2F show control experiments in the dose response studies of Example 1.

GPR139 [2] = target: T1, GPR139; assay: GTPγS binding dose response study, human GPR139 co-transfected with GO2Q into COS7 cells; assay type: biochemical; design: expressed in transfected cells; host or cells: COS7 (membranes); conditions: human GPR139, FIG. 2A and 2B
From the text: as §3

GPR139 [3] = target: T1, GPR139; assay: Calcium mobilization assay (FLIPR), GPR139 expressed in HEK293 cells; assay type: cell-based; design: expressed in transfected cells; host or cells: HEK293 (transient); conditions: similar to GTPγS binding studies
Protocol: FIG. 3A and FIG. 3B: Provides the results of experiments conducted to determine whether Trp and its derivatives (FIG. 3A) and Phe and its derivatives (FIG. 3B) stimulate Ca^2+ mobilization in HEK293 cells expressing GPR139.
The active compounds were also tested in a calcium mobilization assay (FLIPR® assay). For these experiments human GPR139 was transiently expressed in HEK293 cells and calcium mobilization was stimulated using L-Trp, L-Phe or their derivatives. […] The concentrations of L-Trp and L-Phe in many cell culture media (for instance DMEM is about 80 μM and 750 μM respectively) are close to the EC50 values of L-Trp and L-Phe for GPR139. […] This may explain why GPR139 appeared constitutively active when recombinantly expressed in mammalian cells.
About 300 additional phenylalanine analogues have been tested for GPR139 activation using a calcium mobilization (FLIPR®) assay. The results of these experiments indicate that many of these analogues can also activate GPR139. Table 4 lists certain phenylalanine analogues that have been determined to activate GPR139 by calcium mobilization at a concentration of 300 μM (calcium mobilization is expressed as percentage of that observed for L-phenylalanine).

[4] = 1 mM final concentration, COS7 membranes expressing GO2Q alone, single wells of triplicate

| Compound | Activation levels of GPR139 (GTPγS binding), GPR139-GO2Q (GPR139 [1]) | Activation levels (GTPγS binding), Ct-GO2Q (GO2Q alone; [4]) | other results |
| --- | --- | --- | --- |
| CNCC(O)c1ccc(O)c(O)c1 (stereo not drawn) [Adrenaline] | 2721 and 2624 and 2670 | 2240 and 2117 and 2045 |  |
| NCCc1c[nH]c2ccc(O)cc12 [Seretonin] | 2839 and 2852 and 2920 | 2356 and 2154 and 2332 |  |
| NCCc1ccc(O)cc1 [Tyramine] | 2883 and 2932 and 2873 | 2132 and 2277 and 2369 |  |
| N[C@@H](CCC(=O)O)C(=O)O [Glu] | 2847 and 2837 and 2841 | 2242 and 2310 and 2311 |  |
| CC(C)C[C@H](N)C(=O)O [Leu] | 2621 and 2544 and 2437 | 2194 and 2213 and 2167 |  |
| N[C@@H](CO)C(=O)O [Ser] | 2605 and 2458 and 2545 | 1975 and 2036 and 2164 |  |
| N[C@@H](CS)C(=O)O [Cys] | 2168 and 2458 and 2336 | 1928 and 2132 and 2114 |  |
| NCCCC[C@H](N)C(=O)O [Lys] | 2433 and 2617 and 2589 | 2400 and 2138 and 2041 |  |
| C[C@H](N)C(=O)O [Ala] | 2363 and 2348 and 2439 | 1903 and 2049 and 2139 |  |
| N[C@H](Cc1ccccc1)C(=O)O [D-Phe, D-phenylalanine] |  |  | Dose-responsive activation of GPR139 (GTPγS binding) (mouse GPR139): specifically activate GPR139 in a dose-responsive manner; Dose-responsive activation of GPR139 (GTPγS binding) (GPR139 [2]): specifically activate GPR139 in a dose-responsive manner |
| N[C@@H](CC(=O)O)C(=O)O [Asp] | 2758 and 2922 and 2925 | 2177 and 2137 and 2132 |  |
| NCC(O)c1ccc(O)cc1 (stereo not drawn) [Octopamine] | 2554 and 2675 and 2831 | 2087 and 2140 and 2142 |  |
| C[C@@H](O)[C@H](N)C(=O)O [Thr] | 2547 and 2507 and 2558 | 2210 and 2213 and 2008 |  |
| O=C(O)[C@@H]1C[C@@H](O)CN1 [HO-Pro] | 2825 and 2797 and 3109 | 2166 and 2152 and 2189 |  |
| NCCc1c[nH]cn1 [HA, histamine] | 2737 and 2863 and 2899 | 2186 and 2204 and 2199 |  |
| N[C@@H](Cc1c[nH]cn1)C(=O)O [His] | 2640 and 2499 | 2308 and 2259 and 2197 |  |
| O=C(O)[C@@H]1CCCN1 [Pro] | 2719 and 2657 and 2786 | 2256 and 2235 and 2329 |  |
| N[C@H](Cc1c[nH]c2ccccc12)C(=O)O [D-Trp, D-tryptophan] |  |  | Dose-responsive activation of GPR139 (GTPγS binding) (mouse GPR139): specifically activate GPR139 in a dose-responsive manner; Dose-responsive activation of GPR139 (GTPγS binding) (GPR139 [2]): specifically activate GPR139 in a dose-responsive manner |
| NCC(=O)O [Gly] | 2560 and 2505 and 2414 | 1936 and 2133 and 2289 |  |
| N=C(N)NCCC[C@H](N)C(=O)O [Arg] | 2806 and 2783 and 2528 |  | Activation levels (GTPγS binding), Ct-GO2Q (GO2Q alone): 2171 and 2131 and 2255 |
| N[C@@H](Cc1ccc(O)cc1)C(=O)O [Tyr] | 2752 and 2715 and 2921 | 2192 and 2191 and 2186 |  |
| CSCC[C@H](N)C(=O)O [Met] | 2657 and 2829 and 2802 | 2173 and 2307 and 2276 |  |
| CC[C@H](C)[C@H](N)C(=O)O [Ile] | 2760 and 2542 and 2903 | 2266 and 2222 and 2253 |  |
| CC(C)[C@H](N)C(=O)O [Val] | 2632 and 2689 and 2533 | 2072 and 2083 and 1977 |  |
| Cn1cc(C[C@H](N)C(=O)O)c2ccccc21 [1-methy-L-Trp, 1-methyl-L-Trp] |  |  | Dose-responsive activation of GPR139 (GTPγS binding) (mouse GPR139): specifically activate GPR139 in a dose-responsive manner; Dose-responsive activation of GPR139 (GTPγS binding) (GPR139 [2]): specifically activate GPR139 in a dose-responsive manner; Potency in calcium mobilization relative to L-Trp and L-Phe (GPR139 [3]): higher potencies |
| NC(=O)CC[C@H](N)C(=O)O [Gln] | 2583 and 2525 and 2766 | 2181 and 2327 and 2336 |  |
| Cn1cc(C[C@@H](N)C(=O)O)c2ccccc21 [1-methy-D-Try, 1-methyl-D-Trp] |  |  | Dose-responsive activation of GPR139 (GTPγS binding) (mouse GPR139): specifically activate GPR139 in a dose-responsive manner; Dose-responsive activation of GPR139 (GTPγS binding) (GPR139 [2]): specifically activate GPR139 in a dose-responsive manner; Potency in calcium mobilization relative to L-Trp and L-Phe (GPR139 [3]): higher potencies |
| N[C@@H](CSSC[C@H](N)C(=O)O)C(=O)O [Cystine] | 2501 and 2652 and 2258 | 2242 and 2149 and 2229 |  |
| NC(=O)C[C@H](N)C(=O)O [Asn] | 2806 and 2483 and 2547 | 2195 and 2142 and 2133 |  |
